Assay results published in patent US6344440B1, “Antisecretory factor peptides regulating pathological permeability changes” (Rural Patent Svenska AB, priority 1995, dated 2002).

What was measured:
[1] = system: toxin A from Clostridium difficile-induced inflammation and fluid secretion in the intestinal mucosa; test: Toxin A-induced intestinal inflammation and fluid secretion, rat intestinal loop model; type: in vivo; settings: for toxin A-induced fluid secretion: p<0.01
Experimental: The effect of rAF on inflammation in the intestinal mucosa was also tested in the rat intestinal loop model. […] Half of the rats in each group received 100 ng of rAF intravenously 30 sec prior to the challenge; the other half received PBS buffer as control. After killing the rat, the loops was dissected out, and the middle 2-3 cm part of the loops were frozen on dry ice. The frozen specimens were then sectioned in 8 μm thick sections by use of a Leica cryostat. […] Alkaline phosphatases are expressed by the intestinal epithelial cells and the staining allows an assessment and of the integrity of the intestinal epithelium.

[2] = system: cholera toxin-induced fluid secretion in rat intestine; settings: in vivo
[3] = system: CT-induced extravascular penetration of Evans blue in the plexus choroideus; settings: rat, in vivo, iv
[4] = system: CT-induced extravascular penetration of Evans blue in the small intestine; settings: rat, in vivo, iv
[5] = system: cholera toxin-induced Evans blue permeation of intestinal tissue; settings: rat, in vivo
Toxicity of rAF in rats = type: in vivo, rat
Experimental: Toxicity—In order to test the toxicity of rAF it was injected in a high dose, 50 μg per rat.

IVCHSKTR (Human) [P1]
effect on toxin A-induced intestinal inflammation and fluid secretion ([1]; 0.5 μg replacing the rAF protein): achieved the same effect
state of intestinal mucosa (alkaline phosphatase staining, FIG. 9) ([1]; 0.5 μl of P1 prior to toxin challenge): a conserved and normal intestinal mucosa
ED50 (amount causing halfmaximal inhibition) [2]: 5 pmol
active dose [2]: less than 1 ng
activity (inhibition of cholera secretion) [2]: active
CT-induced extravascular penetration of Evans blue, plexus choroideus [3]: inhibits the CT-induced extravascular penetration of Evans blue
CT-induced extravascular penetration of Evans blue, small intestine [4]: inhibits the CT-induced extravascular penetration of Evans blue

N2: recombinant peptide, amino acids 36-80 of SEQ ID NO:2, expressed from basepairs 168-301 (VCHSKTRSNPENNVGLITLANDCEVLTTLTPDTGRILSKLHTVQP; Human)
ED50 (amount causing halfmaximal inhibition) [2]: 6 pmol

N3: recombinant peptide, amino acids 36-51 of SEQ ID NO:2, expressed from basepairs 168-215 (VCHSKTRSNPENNVGL; Human)
ED50 (amount causing halfmaximal inhibition) [2]: 3 pmol

P3: peptide of amino acids 35-46 of SEQ ID NO:2, solid phase synthesis (IVCHSKTRSNPE; Human)
ED50 (amount causing halfmaximal inhibition) [2]: 7 pmol
activity (inhibition of cholera secretion) [2]: active

VCHSKT (Human) [P2]
effect on the toxin response [2]: no effect

B1: rAF: recombinant human antisecretory factor, SEQ ID No. 2, thrombin-cleaved pure AF-1 protein expressed in E. coli (protein)
chain: MVLESTMVCVDNSEYMRNGDFLPTRLQAQQDAVNIVCHSKTRSNPENNVGLITLANDCEVLTTLTPDTGRILSKLHTVQPKGKITFCTGIRVAHLALKHRQGKNHKMRIIAFVGSPVEDNEKDLVKLAKRLKKEKVNVDIINFGEEEVNTEKLTAFVNTLNGKDGTGSHLVTVPPGPSLADALISSPILAGEGGAMLGLGASDFEFGVDPSADPELALALRVSMEEQRHAGGGARRAARASAAEAGIATTGTEDSDDALLKMTISQQEFGRTGLPDLSSMTEEEQIAYAMQMSLQGAEFGQAESADIDASSAMDTSEPAKEEDDYDVMQDPEFLQSVLENLPGVDPNNEAIRNAMGSLPPRPPRTARRTRRRKTRSETGGKG
modifications: Human
% increase of EB-konc [5]: 0 NS %
CT-induced increase of EB extracted from the intestinal tissue [5]: prevent this increase
EB/g int. tissue × 10^−07 [5]: 29.6 ± 1.5 EB/g int. tissue × 10^−07
toxic reaction (Toxicity of rAF in rats; 50 μg per rat, observation period of one week): No obvious toxic reaction
toxic reactions (Toxicity of rAF in rats; rats given 100 fold higher doses than that causing half-maximal inhibition): no obvious toxic reactions
damage of the intestinal mucosa (shedding, necrosis, bleeding) ([1]; 100 ng i.v. 30 sec prior to 0.5 μg toxin A, 2.5 and 5 h): no shedding, necrosis or bleeding
toxin A-induced fluid secretion ([1]; 100 ng i.v. 30 sec prior to 0.5 μg toxin A, after 2.5 h, control 199±4): 137 ± 5 mg/cm
toxin A-induced fluid secretion ([1]; 100 ng i.v. 30 sec prior to 0.5 μg toxin A, after 6 h, control 421±3): 203 ± 6 mg/cm
inhibition of intestinal secretion compared to control animals [2]: significant inhibition
reduction of the fluid secretion compared to controls [2]: significant reduction

B2: N1: recombinant peptide, amino acids 1-80 of SEQ ID NO:2, expressed from basepairs 63-301 (protein)
chain: MVLESTMVCVDNSEYMRNGDFLPTRLQAQQDAVNIVCHSKTRSNPENNVGLITLANDCEVLTTLTPDTGRILSKLHTVQP
modifications: Human
ED50 (amount causing halfmaximal inhibition) [2]: 4 pmol
